Here are results for nine molecules from patent publication US8143421B2, “Broadspectrum substituted benzimidazole sulfonamide HIV protease inhibitors” (priority 2002, dated 2012).

The test system of one series is mock-infected MT4 cells. In words: Toxicity on mock-infected MT4 cells (CC50). As for the experimental part:
(§1) HIV- or mock-infected MT4 cells were incubated for five days in the presence of various concentrations of the inhibitor. […] Cell viability is measured by measuring the concentration of MTT, a yellow, water soluble tetrazolium dye that is converted to a purple, water insoluble formazan in the mitochondria of living cells only. Upon solubilization of the resulting formazan crystals with isopropanol, the absorbance of the solution is monitored at 540 nm. The values correlate directly to the number of living cells remaining in the culture at the completion of the five day incubation. The inhibitory activity of the compound was monitored on the virus-infected cells and was expressed as IC50 and IC90. These values represent the amount of the compound required to protect 50% and 90%, respectively, of the cells from the cytopathogenic effect of the virus. […] The selectivity index (SI) (ratio CC50/IC50) is an indication of the selectivity of the anti-HIV activity of the inhibitor. Wherever results are reported as e.g. pIC50 or pCC50 values, the result is expressed as the negative logarithm of the result expressed as IC50 or CC50 respectively.
(§2) As a measure of the broad spectrum activity of the present compounds, the fold resistance (FR), defined as FR=IC50(mutant strain)/IC50(HIV-1 strain LAI), was determined.

The test system of another series is mutant A. It counts as cell-based. Particulars: FR=IC50(mutant strain)/IC50(HIV-1 strain LAI). On the procedure: as §1
(§3) Because of the increasing emergence of drug resistant HIV strains, the present compounds were tested for their potency against clinically isolated HIV strains harboring several mutations. […] The viral strains R13025, R13027, R13028, R13029, R13034, R13080, T13127 and R13363 contained mutations as indicated below in Table 3.
as §2

The next series has as its system mutant E. It counts as cell-based. Particulars: FR=IC50(mutant strain)/IC50(HIV-1 strain LAI). As for the experimental part:
as §1, §3, §2

A further series relates to mutant H. Description: Antiviral spectrum, fold resistance towards mutant H. It counts as cell-based. The following applies: FR=IC50(mutant strain)/IC50(HIV-1 strain LAI). On the procedure: Because of the increasing emergence of drug resistant HIV strains, the present compounds were tested for their potency against clinically isolated HIV strains harboring several mutations. These mutations are associated with resistance to protease inhibitors and result in viruses that show various degrees of phenotypic cross-resistance to the currently commercially available drugs such as for instance saquinavir, ritonavir, nelfinavir, indinavir and amprenavir. The viral strains R13025, R13027, R13028, R13029, R13034, R13080, T13127 and R13363 contained mutations as indicated below in Table 3.

The test system of a further series is HIV-1 strain LAI. Description: Cellular anti-HIV assay, MT4 cells, MTT readout, wild type HIV-1 strain LAI. The series is classed as cell-based. Particulars: for pIC50 (LAI): MT4 cells, five days, HIV-1 strain LAI; for WT (pIC50 against wild type HIV-LAI strain): Table 4. On the procedure: The compounds of the present invention were examined for anti-viral activity in a cellular assay. […] The cellular assay was performed according to the following procedure.

The mark [1] stands for this setting: pCC50 value as determined with mock transfected cells.

In the case of `COC(=O)Nc1nc2ccc(S(=O)(=O)N(CC(C)C)C[C@@H](O)[C@H](Cc3ccccc3)NC(=O)COc3c(C)cc(CN)cc3C)cc2[nH]1` [Compound 26], in the series on mock-infected MT4 cells (setting [1]), the “Tox (pCC50)” value came to 4.86. The “FR value towards mutant A” value in the series on mutant A turned out to be 6.3. Further, the “FR towards mutant E” value in the series on mutant E amounted to 6.8. In addition, the “FR towards mutant H” value with mutant H is reported as 47. In addition, the “pIC50 (LAI)” value in the series on HIV-1 strain LAI (Table 1) came to 7.0. In addition, the “WT (pIC50 against wild type HIV-LAI strain)” value (shortened to “WT”) in the series on HIV-1 strain LAI was 7.0.

For the molecule “[(1S,2R)-3-[[(1-methylbenzimidazol-5-yl)sulfonyl](2-methyl-propyl)amino]-2-hydroxy-1-(phenylmethyl)propyl]carbamic acid, [(3R,3aS,6aR)-hexahydrofuro[2,3-b]furan-3-yl]ester [Compound 64]”, in the series on mock-infected MT4 cells (setting [1]), the “Tox (pCC50)” value is on record as below 4. In addition, the “FR value towards mutant A” value in the series on mutant A is given as 4.3. Also, in the series with mutant E, the “FR towards mutant E” value came out at 1.5. Besides, in the series with mutant H, the “FR towards mutant H” value worked out at 13. Also, the “pIC50 (LAI)” value in the series on HIV-1 strain LAI (Table 2) was found to be 7.6. In the series with HIV-1 strain LAI, the “WT” value was found to be 7.6.

In the case of `CC(C)CN(C[C@@H](O)[C@H](Cc1ccccc1)NC(=O)OC1COC2OCCC12)S(=O)(=O)c1ccc2nc(N)[nH]c2c1` (stereo partly drawn) [Compound 59], the “Tox (pCC50)” value with mock-infected MT4 cells is listed as below 4. Further, in the series with mutant A, the “FR value towards mutant A” value stood at 1.5. The “FR towards mutant E” value with mutant E was 0.31. In the series with mutant H, the “FR towards mutant H” value was found to be 0.39. In addition, in the series on HIV-1 strain LAI (Table 1), the “pIC50 (LAI)” value is given as 5.3. The “WT” value in the series with HIV-1 strain LAI came out at 5.3.

As for `CC(C)CN(C[C@@H](O)[C@H](Cc1ccccc1)NC(=O)OCc1cncs1)S(=O)(=O)c1ccc2ncn(CC(C)C)c2c1` [Compound 32], the “Tox (pCC50)” value in the series on mock-infected MT4 cells was determined as 4.2. Moreover, the “FR value towards mutant A” value with mutant A amounted to 18. Besides, the “FR towards mutant E” value in the series on mutant E stood at 13. Besides, the “FR towards mutant H” value in the series with mutant H amounted to 41. For the same molecule, in the series on HIV-1 strain LAI (Table 1), the “pIC50 (LAI)” value worked out at 7.4. For the same molecule, in the series on HIV-1 strain LAI, the “WT” value was 7.4.

For the molecule `Cc1cccc(C)c1OCC(=O)N[C@@H](Cc1ccccc1)[C@H](O)CN(CC(C)C)S(=O)(=O)c1ccc2ncn(C)c2c1` [Compound 31], the “Tox (pCC50)” value in the series with mock-infected MT4 cells came out at 4.24. Moreover, the “FR value towards mutant A” value with mutant A was determined as 13. In addition, the “FR towards mutant E” value in the series on mutant E was determined as 9.5. Also, the “FR towards mutant H” value in the series on mutant H is given as 209. Besides, the “pIC50 (LAI)” value in the series with HIV-1 strain LAI (Table 1) turned out to be 7.2. The “WT” value in the series with HIV-1 strain LAI turned out to be 7.2.

As to `CC(C)CN(C[C@@H](O)[C@H](Cc1ccccc1)NC(=O)OC1COC2OCCC12)S(=O)(=O)c1ccc2nc[nH]c2c1` (stereo partly drawn) [Compound 50], in the series with mock-infected MT4 cells, the “Tox (pCC50)” value is recorded as below 4. Moreover, in the series with mutant A, the “FR value towards mutant A” value is listed as 1.4. Besides, the “FR towards mutant E” value in the series on mutant E is on record as 0.83. Further, in the series with mutant H, the “FR towards mutant H” value was determined as 2.8. Moreover, the “pIC50 (LAI)” value in the series with HIV-1 strain LAI (Table 1) was determined as 6.9. Also, the “WT” value in the series on HIV-1 strain LAI is 6.9.

Regarding `CC(C)CN(C[C@@H](O)[C@H](Cc1ccccc1)NC(=O)OCc1cncs1)S(=O)(=O)c1ccc2ncn(C)c2c1` [Compound 33], the “Tox (pCC50)” value in the series with mock-infected MT4 cells is given as below 4. For the same molecule, the “FR value towards mutant A” value with mutant A was determined as 60. In the series on mutant E, the “FR towards mutant E” value stood at 19. For the same molecule, in the series with mutant H, the “FR towards mutant H” value is reported as 234. Also, the “pIC50 (LAI)” value with HIV-1 strain LAI (Table 1) is on record as 7.0. Also, the “WT” value with HIV-1 strain LAI amounted to 7.7.

Turning to `CC(C)CN(CC(O)C(Cc1ccccc1)NC(=O)OC1COC2OCCC12)S(=O)(=O)c1ccc2nc(N)n(C)c2c1` (stereo not drawn) [Compound 41], the “Tox (pCC50)” value in the series on mock-infected MT4 cells is recorded as below 4. For the same molecule, the “FR value towards mutant A” value in the series on mutant A amounted to 1.4. In addition, in the series with mutant E, the “FR towards mutant E” value came to 1.4. Moreover, the “FR towards mutant H” value in the series on mutant H is recorded as 1.5. Besides, the “pIC50 (LAI)” value in the series on HIV-1 strain LAI (Table 1) was determined as 6.6. For the same molecule, the “WT” value in the series with HIV-1 strain LAI was found to be 6.6.

In the case of `Cc1cc(OCC(=O)N[C@@H](Cc2ccccc2)[C@H](O)CN(CC(C)C)S(=O)(=O)c2ccc3nc[nH]c3c2)no1` [Compound 49], in the series with mock-infected MT4 cells (setting [1]), the “Tox (pCC50)” value is recorded as below 4. In addition, the “FR value towards mutant A” value with mutant A came out at 12. Also, in the series with mutant E, the “FR towards mutant E” value came to 1.0. For the same molecule, the “FR towards mutant H” value with mutant H is listed as 3.5. Besides, the “pIC50 (LAI)” value in the series with HIV-1 strain LAI (Table 1) worked out at 6.3. Moreover, the “WT” value in the series with HIV-1 strain LAI stood at 6.3.
